The nature of series [1]: Stability and form transfer experiments of HCl salt forms (XRPD result). It counts as physicochemical. On the procedure:
(§1) All of the solid samples generated in the polymorph screen were analyzed by XRPD. XRPD analysis was conducted on a PANalytical Empyrean or a Thermo ARL X'TRA X-ray powder diffractometer using Cu Kα radiation at 1.54 Å.
Further form conversion experiments were performed to determine interconversion among solid forms. Form conversion was also observed during further characterization of the solid forms.

Series [2] in a line: Competitive slurry / Form E and Form F transformation. It counts as physicochemical.
Series [3] in a line: Compression test (2000-psi). To be noted: 2000-psi pressure for about 1 minute. It counts as physicochemical. On the procedure: The stability of Form A was further characterized by compression test and form transfer experiments. Upon application of 2000-psi pressure for about 1 minute, the material was still Form A (FIG. 43).
Series [4] in a line: Dynamic vapor sorption (DVS) moisture sorption/desorption. It counts as physicochemical. The procedure: Hygroscopicity was determined on a Surface Measurement Systems DVS. […] The relative humidity was increased from 0% to 90% RH at 10% RH step, then at 95% RH. The relative humidity was then decreased in a similar manner to accomplish a full adsorption/desorption cycle. For hydrated forms, the analysis started at 50% RH and increased to 90% RH at 10% RH step. The relative humidity was then decreased in a similar manner to 0% RH followed by increasing to 50% RH.

Series [5] is described as follows: Equilibration (slurry) of Form A at room temperature and 50° C., form by XRPD. It counts as physicochemical. On the procedure: Equilibration and evaporation experiments were carried out by adding an excess of the HCl salt to up to 2 mL of a test solvent. The resulting mixture was agitated for at least 24 hours at room temperature and 50° C. separately. Upon reaching equilibrium, the saturated supernatant solution was removed, filtered using 0.45 μm PTFE filters and allowed to evaporate in an open vial under nitrogen at room temperature and 50° C., respectively. The solid resulting from the equilibration was isolated and air-dried before analysis.
as §1

Series [6] can be described thus: Heating of solid form followed by XRPD. It counts as physicochemical. On the procedure:
Form C was obtained from anti-solvent recrystallization in DMSO/n-BuOH, DMSO/MTBE or DMSO/BuOAc. DSC and TGA thermograms of Form C are shown in FIG. 52 and FIG. 53, respectively. The TGA weight loss of 1.6 and 15.1 wt % corresponded to broad DSC endotherm around 50° C. and endotherms around 142-146° C., respectively, and can be attributed to loss of solvent/water in Form C. The DSC thermogram with an onset temperature of 251.8° C. was due to final melt/decomposition. […] The ^1H-NMR spectrum of Form C was consistent with Compound I structure with approximately one molar equivalent (or ˜13.9 wt %) of DMSO solvent (FIG. 55). Without being limited by any particular theory, Form C is a DMSO solvate. […]

“Also recorded” adds a separate entry of the source. Counter-ions that a name gives are not always drawn. Like-named read-outs stand apart in the source and are kept apart here.

Turning to `O=C1CCC(N2Cc3c(OCc4ccc(CN5CCOCC5)cc4)cccc3C2=O)C(=O)N1` (racemic) [racemic Compound (I) hydrochloride methanol solvate], the “Form conversion upon exposure to ambient moisture” value in series [1] is reported as “converted to racemic Compound (I) hydrochloride hydrate”; in series [1] (listed as MeOH solvate of HCl salt of racemic Compound (I)) it was “converts to a hydrate of HCl salt of racemic Compound (I)”.

For the compound `Cl.O=C1CC[C@H](N2Cc3c(OCc4ccc(CN5CCOCC5)cc4)cccc3C2=O)C(=O)N1` [Form A + F], the “XRPD Result” value is given as “Form A” in series [2] (IPA/water (50/50), 3 days at RT); “Form A” in series [2] (IPA/water (65/35), 3 days at RT); “Form A” in series [2] (IPA/water (80/20), 6 days at RT); “Form A” in series [2] (IPA/water (95/5), 6 days at RT); “Form A” in series [2] (MeOAc saturated with water, 3 days at RT); “Form A” in series [2] (Water, 3 days at RT).

`Cl.O=C1CC[C@H](N2Cc3c(OCc4ccc(CN5CCOCC5)cc4)cccc3C2=O)C(=O)N1` [Form A]: the “Relative stability of forms (in words)” value in series [2] (water and aqueous/organic (aqueous/IPA) mixtures, competitive slurry) is given as “more stable than hydrate forms”. Besides, in series [3], the Form after compression entry was “remains as the Form A crystal form; also recorded: still Form A”. In addition, the “Hygroscopicity (in words, from DVS)” value in series [4] is listed as “slightly hygroscopic”. Also, the “XRPD Result after DVS (adsorption/desorption cycles)” value in series [4] was “remains as the Form A crystal; also recorded: no change”. Besides, the “DVS or other comments: water uptake” value in series [4] (from 0 to 90% RH) is given as 1.8 wt % water uptake. For the same compound, the “Approximate Solubility” value was less than 1000 µg/mL (Acetone, room temperature); less than 1000 µg/mL (CH2Cl2, room temperature); less than 1000 µg/mL (CH3CN, room temperature); greater than 50000 µg/mL (CH3CN/H2O (1:1), room temperature); greater than 50000 µg/mL (DMSO, room temperature); less than 1000 µg/mL (EtOAc, room temperature). Further, the “Approximate Solubility” value by setting is: (EtOH, room temperature) roughly 1000 µg/mL; (EtOH/H2O (1:1), room temperature) greater than 50000 µg/mL; (H2O, room temperature) greater than 50000 µg/mL; (Heptane, room temperature) less than 1000 µg/mL; (IPA, room temperature) roughly 1000 µg/mL; (MEK, room temperature) less than 1000 µg/mL. For the same compound, the “Approximate Solubility” value is, setting by setting: (MTBE, room temperature) less than 1000 µg/mL; (MeOAc, room temperature) less than 1000 µg/mL; (MeOH, room temperature) roughly 10000 µg/mL; (THF, room temperature) less than 1000 µg/mL; (THF/H2O (1:1), room temperature) greater than 50000 µg/mL; (Toluene, room temperature) less than 1000 µg/mL. Also, the “Approximate Solubility” value (n-BuOH, room temperature) is less than 1000 µg/mL. The “Solubility (most soluble)” value (in MeCN/water (1:1), EtOH/water (1:1), THE/water (1:1), and water) is on record as “greater than 50 mg/mL”. The “Solubility (in words)” value (in MeOH) is recorded as “moderate solubility”. Also, the “Solubility (low or very low)” value (in acetone, MeCN, n-BuOH, EtOH, IPA, EtOAc, MEK, DCM, MTBE, heptane, MeOAc, toluene and THF) is no more than 1000 µg/mL. The “Form by XRPD after equilibration” value in series [5] (MeCN/H2O (95:5), RT) is “Form D”. Besides, the “Form by XRPD after slurry” value in series [5] (non-aqueous solvents, 24 h of slurry) is listed as “Form A”.

Turning to `Cl.O=C1CC[C@H](N2Cc3c(OCc4ccc(CN5CCOCC5)cc4)cccc3C2=O)C(=O)N1` [Form B], the “XRPD Result” value is listed as “Form A” in series [1] (Exposed to ambient air, 1 week at RT) and “Form A” in series [1] (IPA, 24 h at RT). For the same compound, the “Form conversion during exposure to ambient / ambient storage” value in series [1] was “converts to the Form A crystal form; also recorded: converted to Form A”; in series [1] (listed as B), “Converts to Form A”. The “XRPD Result after DVS (adsorption/desorption cycles)” value in series [4] was “Form A”.

Turning to `Cl.O=C1CC[C@H](N2Cc3c(OCc4ccc(CN5CCOCC5)cc4)cccc3C2=O)C(=O)N1` [Form C], in series [1], the “Form conversion in IPA slurry” value was “convert to Form A”. Besides, the “XRPD Result” value in series [1] (IPA, 24 h at RT) is “Form A”; in series [1] (MeOAc, 1 day at RT), “Form A”. For the same compound, the “XRPD pattern after heating” value in series [6] (heated to 165° C.) is “converts to the Form A crystal form; also recorded: consistent with Form A”. Further, the “XRPD Result after DVS (adsorption/desorption cycles)” value in series [4] was “Form A”. The “Form conversion upon exposure to high humidity” value in series [4] (higher than 70% RH in the DVS instrument) is given as “converts to the Form A crystal form; also recorded: convert to Form A”.

For `Cl.O=C1CC[C@H](N2Cc3c(OCc4ccc(CN5CCOCC5)cc4)cccc3C2=O)C(=O)N1` [Form E], the “XRPD Result” value in series [2] (IPA/water (40/60), Spontaneous, RT) is reported as “Form F”; in series [2] (IPA/water (60/40), Spontaneous, RT) it was “Form F”; in series [2] (IPA/water (80/20), Spontaneous, RT), “Form F”; in series [2] (IPA/water (90/10), Spontaneous, RT), “Form F”; in series [2] (IPA/water (95/5), Spontaneous, RT) it was “Form F”; in series [1] (IPA, 24 h at RT), “Form A”. Further, in series [2] (various IPA/water mixtures), the “Form conversion in IPA/water mixtures” value is reported as “convert to Form F”. Also, the “Form conversion in IPA slurry” value in series [1] was “converted to Form A”. Besides, the “XRPD pattern after heating” value is “remains as the Form E crystal form; also recorded: consistent with Form E” in series [6] (heated to 120° C.) and “converts to an amorphous form; also recorded: amorphous pattern” in series [6] (heated to 190° C.). Besides, the “Hygroscopicity (in words, from DVS)” value in series [4] is given as “hygroscopic”. For the same compound, in series [4], the “XRPD Result after DVS (adsorption/desorption cycles)” value is “converts to the Form F crystal form; also recorded: partially converted to Form F”. In series [4] (during DVS experiment), the “DVS or other comments: form conversion” value is reported as “Converts to Form F”.

Turning to `Cl.O=C1CC[C@H](N2Cc3c(OCc4ccc(CN5CCOCC5)cc4)cccc3C2=O)C(=O)N1` [Form I], in series [1] (MeOAc, 1 minute at RT), the “XRPD Result” value was “Form A”. Also, the “Form conversion upon exposure to ambient humidity / ambient condition” value in series [1] (listed as I) was “Converts to Form A”. Besides, in series [1] (washed with MeOAc), the “XRPD pattern after washing with MeOAc” value is on record as “converts to the Form A crystal; also recorded: consistent with Form A”.

Regarding `Cl.O=C1CC[C@H](N2Cc3c(OCc4ccc(CN5CCOCC5)cc4)cccc3C2=O)C(=O)N1` [Form K], the figures for the “Form conversion upon exposure to ambient humidity / ambient condition” value in series [1] and in series [1] (listed as K) were “converts to the Form F crystal; also recorded: convert to Form F” and “Converts to Form F”, respectively.
